Experimental data as given in patent US12433896B2, “Deuterated analogs of etifoxine, their derivatives and uses thereof” (GABA Therapeutics Inc., priority 2015, dated 2025).
Structures can show the parent of a compound that is named as a salt.

How the values were obtained:
[1] = pharmacokinetics in male Sprague-Dawley rats after oral gavage; type: in vivo; conditions: PO 50 mg/kg; for Cmax / AUC(0-t): rat, male Sprague-Dawley rats, plasma, average N=3, 70/30 Saline/PEG400; for AUC(0-t): read-out: AUC0-12
Procedure: Compounds were evaluated for pharmacokinetic profiles in male Sprague-Dawley rats at Shanghai Chempartner, Shanghai, China. Etifoxine hydrochloride and the hydrochloride salt of the compound described in example 1 were dosed to Sprague-Dawley rats via oral gavage (PO). Each compound was administered at a dose of 50 mg/kg to three rats (N=3 rats/compound; total 6 rats in the study). Each compound was formulated in 70/30 Saline/PEG400 at a concentration of 5 mg/mL (10 mL/kg injection volume/rat). Blood samples were collected from each rat at 10, 20, 30, 45 minutes and 1, 2,4 and 12 hours post-dose. Blood samples were put on ice and centrifugated to obtain plasma. Plasma samples were analyzed for concentrations of the dosed compound at each time point by LC-MS/MS using an AB-Sciex API-400 mass spectrometer. The lower limit of quantitation of each compound was 1 ng/mL. Pharmacokinetic parameters were determined by non-compartmental analysis using WinNonlin 6.2 software.

[2] = liver human microsomes stability study; type: in vitro ADME; conditions: for half-life at 0.1 μM: human, liver microsomes
Procedure: (§1) Compounds were evaluated for liver microsome metabolic stability at Eurofins/Cerep (St. Charles, MO). […] Test compounds at a concentration of 0.1 μM were incubated for up to 60 minutes in duplicate. The microsomal protein concentration was 0.1 mg/mL. The parent compound was detected by HPLC-MS/MS analysis. The percent compound remaining was calculated by comparing the peak area of the parent compound at each time point to time zero. Half-life was estimated from the slope of the initial linear range of the logarithmic curve of parent compound remaining vs. time, assuming first order kinetics. The apparent intrinsic clearance was further calculated from the half-life value for assays with microsomes.

[3] = rat liver microsomes stability study; type: in vitro ADME; conditions: for half-life at 0.1 μM: rat, liver microsomes
Procedure: as §1

[4] = cited from earlier work
[5] = rats, relative to etifoxine hydrochloride
[6] = same conditions, different lot of human liver microsomes, read-out: average half-life
[7] = 0.1 μM compound, 0.1 mg/mL microsomal protein, up to 60 minutes, read-out: Half-life (minutes) Experiment 2
[8] = human liver microsomes, 0.1 μM compound, 0.1 mg/mL microsomal protein, up to 60 minutes, read-out: Half-life (minutes) Experiment 1

With `[2H]C([2H])([2H])C([2H])([2H])NC1=Nc2ccc(Cl)cc2C(C)(c2ccccc2)O1` (stereo not drawn) [Example 1 hydrochloride, 6-chloro-N-(ethyl-d5)-4-methyl-4-phenyl-4H-3,1-benzoxazin-2-amine] the “AUC0-12 greater than etifoxine hydrochloride” value [1, 5] was 2.5 times, the “Cmax greater than etifoxine hydrochloride” value [1, 5] was 1.7 times and the Cmax [1] was 1930 ng/mL. For the same compound, the AUC(0-t) [1] was 8340 ng·h/mL.

Work on `[2H]C([2H])([2H])C1(c2ccccc2)OC(NCC)=Nc2ccc(Cl)cc21` (stereo not drawn) [Example 7, 6-chloro-N-ethyl-4-(methyl-d3)-4-phenyl-4H-3,1-benzoxazin-2-amine] yielded a half-life at 0.1 μM [2, 6] of 18 min.

`CCNC1=Nc2ccc(Cl)cc2C(C)(c2ccccc2)O1` (stereo not drawn) [Etifoxine hydrochloride, 6-chloro-2-(ethylamino)-4-methyl-4-phenyl-4H-3,1-benzoxazine, reference compound] showed a Cmax [1] of 1140 ng/mL and an AUC(0-t) [1] of 3380 ng·h/mL.

In the case of `[2H]C([2H])([2H])C([2H])([2H])NC1=Nc2ccc(Cl)cc2C(C)(c2ccccc2)O1` (stereo not drawn) [Example 1, 6-chloro-N-(ethyl-d5)-4-methyl-4-phenyl-4H-3,1-benzoxazin-2-amine], the half-life at 0.1 μM ([3]; 0.1 μM compound, 0.1 mg/mL microsomal protein, up to 60 minutes, read-out: Half-life (minutes) Experiment 1) is reported as 13.8 min, the half-life at 0.1 μM [3, 7] is reported as 13.8 min and the half-life at 0.1 μM ([3]; average of experiments 1 and 2, read-out: Half-life (minutes) Average) is reported as 14 min. For the same compound, the “half-life longer than that of etifoxine” value ([3]; relative to etifoxine) was “about 75%”, the “half-life longer than that of etifoxine” value ([2]; human liver microsomes, relative to etifoxine) was “about 86%” and the half-life at 0.1 μM [2, 8] was 39.7 min. The half-life at 0.1 μM ([2]; human liver microsomes, 0.1 μM compound, 0.1 mg/mL microsomal protein, up to 60 minutes, read-out: Half-life (minutes) Experiment 2) was 41.8 min and the half-life at 0.1 μM ([2]; human liver microsomes, average of experiments 1 and 2, read-out: Half-life (minutes) Average) was 41 min.

With `CCNC1=Nc2ccc(Cl)cc2C(C)(c2ccccc2)O1` (stereo not drawn) [Etifoxine, 6-chloro-2-(ethylamino)-4-methyl-4-phenyl-4H-3,1-benzoxazine] the “Half-life (minutes) Experiment 1” value ([3]; 0.1 μM compound, 0.1 mg/mL microsomal protein, up to 60 minutes) was 7.7 min, the half-life at 0.1 μM [3, 7] was 7.4 min and the “Half-life (minutes) Experiment 2” value ([2]; human liver microsomes, 0.1 μM compound, 0.1 mg/mL microsomal protein, up to 60 minutes) was 21.9 min. The half-life at 0.1 μM [2, 8] was 23 min and the half-life in humans [4] was 240 to 360 min.

In the case of `[2H]c1c([2H])c([2H])c(C2(C)OC(NCC)=Nc3ccc(Cl)cc32)c([2H])c1[2H]` (stereo not drawn) [Example 6, 6-chloro-N-ethyl-4-methyl-4-(phenyl-d5)-4H-3,1-benzoxazin-2-amine], the half-life at 0.1 μM [2, 6] is reported as 18 min.
